This note sets out measurements from ChEMBL document CHEMBL4811263, “Tulipiferamide A, an Alkamide from Liriodendron tulipifera, Exhibits an Anti-Inflammatory Effect via Targeting IKKβ Phosphorylation” (J Nat Prod, 2021).

Molecules are shown by their SMILES. pIC50: −log10 of the molar value. Where only a bound is given, the exact number is not on record here.

The term pIC50 denotes the IC50 on a negative log10 scale, so that one unit is a factor of ten.

Test system in one assay: not listed separately
Put plainly: Inhibition of LPS-indued NF-kappaB activation in mouse RAW264.7 cells preincubated for 30 mins followed by LPS stimulation and measured after 10 hrs by luciferase assay. It is filed as cell-based.
`COc1cc2ccnc3c2c(c1OC)-c1ccccc1C3=O` [LYSICAMINE] showed a pIC50 of 4.75. The molecule `COc1cc(O)c2c(c1)O[C@H](c1ccc(O)cc1)CC2=O` [SAKURANETIN] gave a pIC50 of 4.81. Still for that read-out and setting: the same measure for `C=C1C(=O)O[C@@H]2/C=C(\C)CC/C=C(\C)C[C@@H](O)[C@@H]12` [EUPATOLIDE]: 4.91; for `C=C[C@]1(C)C[C@H](O)[C@H]2C(=C)C(=O)O[C@@H]2[C@H]1C(=C)C`: 4.85.

For the molecule `NC(=O)Nc1sc(-c2ccc(F)cc2)cc1C(N)=O`, the negative-log IC50 (pIC50) is 7.66. On the same count and under the same terms, the same measure for `COc1c2c3c(c(OC)c1OC)-c1ccccc1C[C@H]3N(C(C)=O)CC2`: 4.61; for `COc1c(OC)c2c3c(nccc3c1OC)C(=O)c1cc3c(cc1-2)OCO3` [OXOPHOEBINE]: 4.55.

The next assay concerns RAW264.7. Put plainly: Antiinflammatory activity in mouse RAW264.7 assessed as inhibition of LPS-induced NO production preincubated for 30 mins followed by LPS stimulation measured after 24 hrs by Griess reagent based assay. It is filed as functional, cell-based. In general terms: The Griess reaction detects nitrite, a stable product of nitric oxide.
Take `O=C(NCCc1ccccc1)c1ccccc1`: the negative logarithm of the IC50 (pIC50) is less than 4.30. Turning to `COc1c(OC)c2c3c(nccc3c1OC)C(=O)c1ccccc1-2` [HOMOMOSCHATOLINE], the pIC50 is less than 4.30.

On to `O=C1c2ccccc2-c2c3c(cc4ccnc1c24)OCO3` [LIRIODENINE], for which the negative logarithm of the IC50 (pIC50) is 4.98. For `COc1cc(/C=C/C(=O)NCCc2ccc(O)cc2)ccc1O` [N-TRANS-FERULOYL TYRAMINE], the pIC50 was less than 4.30. As for `COc1cc2c(cc1OC)-c1c(OC)c(OC)cc3ccnc(c13)C2=O` [OXOGLAUCINE], the pIC50 is less than 4.30.

As to `COc1cc2c3c(c1OC)-c1ccccc1C[C@H]3N(C(C)=O)CC2`, the negative logarithm of the IC50 (pIC50) is less than 4.30. Same read-out and setting: the same measure for `COc1cc(C[C@H]2CO[C@H](c3ccc(O)c(OC)c3)[C@H]2CO)ccc1O` [LARICIRESINOL]: less than 4.30; for `O=Cc1ccc(O)cc1` [4-HYDROXYBENZALDEHYDE]: less than 4.30. Still for that read-out and setting: the same measure for `C=C1C(=O)O[C@@H]2/C=C(\C)CC/C=C(\C)C[C@@H](OC(C)=O)[C@@H]12`: 4.70; for `COc1cc2ccnc3c2c(c1OC)-c1ccccc1C3=O` [LYSICAMINE]: 5.19.

Take `COc1cc(O)c2c(c1)O[C@H](c1ccc(O)cc1)CC2=O` [SAKURANETIN]: the pIC50 was 4.67.

With `CCCCC/C=C/C=C\C(=O)NCCc1ccccc1`, the pIC50 was less than 4.30. On the same count and under the same terms, the same measure for `C=CCc1cc(OC)c(O[C@H](C)Cc2cc(OC)c3c(c2)OCO3)c(OC)c1`: less than 4.30; for `COc1cc(/C=C/C(=O)NCCc2ccc(O)c(OC)c2)ccc1O`: less than 4.30. The same measure, in the same setting: the same measure for `COc1c2c3c(c(OC)c1OC)-c1cc4c(cc1C[C@@H]3N(C(C)=O)CC2)OCO4`: less than 4.30.

Take `COc1cc(C(=O)C2CO[C@H](c3cc(OC)c(O)c(OC)c3)[C@H]2CO)cc(OC)c1O` (stereo not given in full): the pIC50 was less than 4.30.

For the molecule `CC(=O)N1CCc2cc3c(c4c2[C@H]1Cc1ccccc1-4)OCO3`, the pIC50 was less than 4.30. As to `C=CCc1cc(OC)c(O)c(OC)c1` [METHOXYEUGENOL], the pIC50 is less than 4.30.

In the case of `COc1cc([C@H]2OC[C@H]3[C@@H]2CO[C@@H]3c2cc(OC)c(O)c(OC)c2)cc(OC)c1O` [SYRINGARESINOL], the pIC50 is less than 4.30. The same measure, in the same setting: the same measure for `COc1cc([C@H]2Oc3c(OC)cc(CCCO)cc3[C@@H]2CO)ccc1O` [DIHYDRODEHYDRODICONIFERY ALCOHOL]: less than 4.30; for `C=CCc1cc(OC)c(OC(C)Cc2cc(OC)c(OC)c(OC)c2)c(OC)c1` (racemic): less than 4.30; for `C=C1C(=O)O[C@@H]2/C=C(\C)CC/C=C(\C)C[C@@H](O)[C@@H]12` [EUPATOLIDE]: 5.14. Same read-out and setting: the same measure for `CNC(=N)NCCC[C@H](N)C(=O)O` [TILARGININE]: 4.45. Regarding `COc1cc(C=O)ccc1O` [VANILLIN], the negative logarithm of the IC50 (pIC50) is less than 4.30. On the same count and under the same terms, the same measure for `C/C=C/c1cc(OC)c(OC(C)Cc2cc(OC)c(OC)c(OC)c2)c(OC)c1` (racemic): less than 4.30; for `C=C1C(=O)O[C@@H]2/C=C(\C)CC/C=C(\C)CC[C@@H]12` [COSTUNOLIDE]: less than 4.30; for `COc1c2c(c3c4c(nccc14)C(=O)c1ccccc1-3)OCO2`: less than 4.30. On the same count and under the same terms, the same measure for `C=C[C@]1(C)C[C@H](O)[C@H]2C(=C)C(=O)O[C@@H]2[C@H]1C(=C)C`: 4.92.

In the case of `COc1cc2oc(=O)ccc2c(OC)c1OC` [5,6,7-TRIMETHOXYCOUMARIN], the pIC50 is less than 4.30. Same read-out and setting: the same measure for `COc1c2c3c(c(OC)c1OC)-c1ccccc1C[C@H]3N(C(C)=O)CC2`: 4.85. On the same count and under the same terms, the same measure for `CC(=O)N(C)CCc1ccccc1`: less than 4.30; for `COc1c(OC)c2c3c(nccc3c1OC)C(=O)c1cc3c(cc1-2)OCO3` [OXOPHOEBINE]: 4.47. The same measure, in the same setting: the same measure for `CCCCC/C=C\CCC(=O)NCCc1ccccc1`: less than 4.30.
